Columns and labels:
DIGSA [1] = test: Pre-emergence action against DIGSA, 1280 g/ha; format: in vivo, Digitaria sanguinalis; details: visual scoring after about 3 weeks vs untreated controls, 100% = plants have died, 0% = like control plants
Text: (§1) 1. Pre-Emergence Herbicidal Effect and Crop Plant Compatibility a) Seeds of mono- and dicotyledonous weed plants are placed in plastic pots in sandy loam soil (doubly sown with one species each of mono- or dicotyledonous weed plants per pot) and covered with soil. The compounds of the invention, formulated in the form of wettable powders (WP) or as emulsion concentrates (EC), are then applied onto the surface of the covering soil as aqueous suspension or emulsion with addition of 0.5% additive at a water application rate equivalent to 600 litres per hectare. After the treatment, the pots are placed in a greenhouse and kept under good growth conditions for the trial plants. After about 3 weeks, the effect of the preparations is scored visually in comparison with untreated controls as percentages. For example, 100% activity=the plants have died, 0% activity=like control plants. 1. Pre-Emergence Effectiveness Tables 1 to 12 below show the effects of selected compounds of the general formula (I) according to Tables 1 and 2 on various harmful plants and at an application rate corresponding to 1280 g/ha, which were obtained by the experimental procedure mentioned above.

ECHCG [2] = test: Pre-emergence action against ECHCG, 1280 g/ha; format: in vivo, Echinochloa crus-galli; details: visual scoring after about 3 weeks vs untreated controls, 100% = plants have died, 0% = like control plants
Text: as §1

LOLRI = test: Pre-emergence action against LOLRI, 1280 g/ha; format: in vivo, Lolium rigidum; details: visual scoring after about 3 weeks vs untreated controls, 100% = plants have died, 0% = like control plants
Text: as §1

POAAN [3] = test: Pre-emergence action against POAAN, 1280 g/ha; format: in vivo, Poa annua; details: visual scoring after about 3 weeks vs untreated controls, 100% = plants have died, 0% = like control plants
Text: as §1

SETVI = test: Pre-emergence action against SETVI, 1280 g/ha; format: in vivo, Setaria viridis; details: visual scoring after about 3 weeks vs untreated controls, 100% = plants have died, 0% = like control plants
Text: as §1

AMARE [4] = test: Pre-emergence action against AMARE, 1280 g/ha; format: in vivo, Amaranthus retroflexus; details: scored visually after about 3 weeks vs untreated controls (100% = plants have died)
Text: as §1

MATIN [5] = test: Pre-emergence action against MATIN, 1280 g/ha; format: in vivo, Tripleurospermum inodorum (Matricaria inodora); details: scored visually after about 3 weeks vs untreated controls (100% = plants have died)
Text: as §1

STEME = test: Pre-emergence action against STEME, 1280 g/ha; format: in vivo, Stellaria media; details: scored visually after about 3 weeks vs untreated controls (100% = plants have died)
Text: as §1

ALOMY [6] = test: Post-emergence action against ALOMY, 1.28 kg/ha; format: in vivo, Alopecurus myosuroides; details: dosage 1280 g/ha, visual rating about 3 weeks after treatment vs untreated controls
Procedure: (§2) • a) Seeds of mono- and dicotyledonous weed plants are placed in plastic pots in sandy loam soil (twin sowing with one species each of mono- or dicotyledonous weed plants per pot), covered with soil and cultivated in a greenhouse under controlled growth conditions. 2 to 3 weeks after sowing, the test plants are treated at the one-leaf stage. The compounds of the invention, formulated in the form of wettable powders (WP) or as emulsion concentrates (EC), are applied to the green parts of the plants as aqueous suspension or emulsion with addition of 0.5% additive at a water application rate equivalent to 600 litres per hectare. After the test plants have been kept in the greenhouse under optimum growth conditions for about 3 weeks, the activity of the preparations is rated visually in comparison to untreated controls. For example, 100% activity=the plants have died, 0% activity=like control plants. As shown by the results, compounds of the general formula (I) of the invention, in post-emergence treatment, have very good herbicidal efficacy (90% to 100% herbicidal action) against harmful plants such as Abutilon theophrasti, Digitaria sanguinalis, Echinochloa crus-galli, Matricaria inodora, Poa annua, at an application rate of 1.28 kg of active substance per hectare.

POAAN [7] = test: Post-emergence action against POAAN, 1.28 kg/ha; format: in vivo, Poa annua; details: dosage 1280 g/ha, visual rating about 3 weeks after treatment vs untreated controls
Procedure: as §2

ABUTH = test: Post-emergence action against ABUTH, 1.28 kg/ha; format: in vivo, Abutilon theophrasti; details: dosage 1280 g/ha, visual rating about 3 weeks after treatment vs untreated controls (100% = plants died)
Procedure: as §2

MATIN [8] = test: Post-emergence action against MATIN, 1.28 kg/ha; format: in vivo, Tripleurospermum inodorum (Matricaria inodora); details: dosage 1280 g/ha, visual rating about 3 weeks after treatment vs untreated controls (100% = plants died)
Procedure: as §2

VERPE [9] = test: Post-emergence action against VERPE, 1.28 kg/ha; format: in vivo, Veronica persica; details: dosage 1280 g/ha, visual rating about 3 weeks after treatment vs untreated controls (100% = plants died)
Procedure: as §2

VERPE [10] = test: Pre-emergence action against VERPE, 1280 g/ha; format: in vivo, Veronica persica; details: scored visually after about 3 weeks vs untreated controls (100% = plants have died)
Text: as §1

ECHCG [11] = test: Post-emergence action against ECHCG, 1.28 kg/ha; format: in vivo, Echinochloa crus-galli; details: dosage 1280 g/ha, visual rating about 3 weeks after treatment vs untreated controls
Procedure: as §2

AMARE [12] = test: Post-emergence action against AMARE, 1.28 kg/ha; format: in vivo, Amaranthus retroflexus; details: dosage 1280 g/ha, visual rating about 3 weeks after treatment vs untreated controls (100% = plants died)
Procedure: as §2

VIOTR = test: Pre-emergence action at 320 g/ha against VIOTR; format: in vivo, Viola tricolor; details: dosage 320 g/ha
Text: (§3) b) Seeds of monocotyledonous and dicotyledonous weed plants and crop plants are placed in plastic or organic planting pots and covered with soil. The compounds of the invention, formulated in the form of wettable powders (WP) or as emulsion concentrates (EC), are then applied onto the surface of the covering soil as aqueous suspension or emulsion with addition of 0.5% additive at a water application rate of 600 l/ha (converted). After the treatment, the pots are placed in a greenhouse and kept under good growth conditions for the trial plants. After about 3 weeks, the effect of the preparations is scored visually in comparison with untreated controls as percentages. For example, 100% activity=the plants have died, 0% activity=like control plants. Tables 13 to 26 below show the effects of selected compounds of the general formula (I) on various harmful plants and at an application rate corresponding to 320 g/ha, which were obtained by the experimental procedure mentioned above.

ALOMY [13] = test: Pre-emergence action against ALOMY, 1280 g/ha; format: in vivo, Alopecurus myosuroides; details: visual scoring after about 3 weeks vs untreated controls, 100% = plants have died, 0% = like control plants
Text: as §1

DIGSA [14] = test: Post-emergence action against DIGSA, 1.28 kg/ha; format: in vivo, Digitaria sanguinalis; details: dosage 1280 g/ha, visual rating about 3 weeks after treatment vs untreated controls
Procedure: as §2

AMARE [15] = test: Pre-emergence action at 320 g/ha against AMARE; format: in vivo, Amaranthus retroflexus; details: visual scoring after about 3 weeks vs untreated controls
Text: as §3

| Structure (SMILES) | Pre-emergence action against DIGSA (DIGSA [1]) | Pre-emergence action against ECHCG (ECHCG [2]) | Pre-emergence action against LOLRI (LOLRI) | Pre-emergence action against POAAN (POAAN [3]) | Pre-emergence action against SETVI (SETVI) | Pre-emergence action against AMARE (AMARE [4]) | Pre-emergence action against MATIN (MATIN [5]) | Pre-emergence action against STEME (STEME) | Post-emergence action against ALOMY (ALOMY [6]) | Post-emergence action against POAAN (POAAN [7]) | Post-emergence action against ABUTH (ABUTH) | Post-emergence action against MATIN (MATIN [8]) | Post-emergence action against VERPE (VERPE [9]) | Pre-emergence action against VERPE (VERPE [10]) | Post-emergence action against ECHCG (ECHCG [11]) | Post-emergence action against AMARE (AMARE [12]) | Pre-emergence action against VIOTR in % (VIOTR) | Pre-emergence action against ALOMY (ALOMY [13]) | Post-emergence action against DIGSA (DIGSA [14]) | Pre-emergence action against AMARE in % (AMARE [15]) |
| --- | --- | --- | --- | --- | --- | --- | --- | --- | --- | --- | --- | --- | --- | --- | --- | --- | --- | --- | --- | --- |
| CONC(=O)COc1nn(-c2ccccc2F)c(-c2ccc(F)cn2)c1Br [II-003] | 100% | 100% | 100% | 100% | 100% | 100% | 100% | 90% | 100% | 100% | 90% | 90% | 100% |  |  |  |  |  |  |  |
| CCOC(=O)COc1nn(-c2ccccc2F)c(-c2cnccn2)c1Br [Example I-004] | 90% | 90% | 90% | 100% | 100% | 100% | 90% | 100% | 100% |  | 90% |  | 100% | 90% | 90% | 90% |  |  |  |  |
| COC(=O)COc1nn(-c2ccccc2F)c(-c2ccc(F)nc2)c1SC [VII-123] | 100% |  | 90% | 100% |  | 90% | 100% | 90% | 90% | 100% | 90% | 90% | 90% | 90% | 100% | 90% |  |  |  |  |
| COC(=O)C1CCCN(C(=O)COc2nn(-c3ccccc3F)c(-c3ccc(F)nc3)c2Br)C1 (centres unmarked) [Example X-018] |  |  |  |  |  |  |  |  |  |  |  |  |  |  |  |  | 90% |  |  |  |
| CCOC(=O)COc1nn(-c2ccccc2F)c(-c2ccc(F)cn2)c1Br [II-014] | 100% | 100% | 100% | 100% | 90% | 90% | 100% | 90% |  | 90% | 90% | 90% | 90% | 100% |  | 90% |  | 100% | 90% |  |
| CSc1ccc(-c2c(Br)c(OCC(=O)O)nn2-c2ccccc2F)cn1 [VII-047] |  |  |  |  |  |  |  |  |  |  |  |  |  |  |  |  |  |  |  | 90% |
